In ChEMBL document CHEMBL1201862, “PubChem BioAssay data set” (2004):
Active and inactive are the calls of the source.

Key:
[1] = control 3'UTR Renilla luciferase suppression, dose response, counter-screen for Shn3 inhibitor project, cell-based, Clone20-Shn3RL, cherry-picked (AID 624133); type: functional
Jurkat = test: antigen receptor-induced NF-kB inhibitors, dose response, Jurkat, luciferase reporter, luminescence, B- and T-cell (AID 489004); type: functional, cell-based; conditions: Homo sapiens;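 note: NF-kB luciferase reporter Jurkat cells stimulated with PMA plus ionomycin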
[2] = cytotoxicity in HEK-293T NF-kB-Luc cells, dose response, cytotoxicity control for B/T-cell NF-kB inhibitor project, cell-based, uHTS hits (AID 489019); type: functional;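 note: IC50 reflects cytotoxicity as loss of cell viability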
[3] = cytotoxicity in MIN6 insulinoma cells, dose response, cytotoxicity control, cell-based, mouse insulinoma (AID 2122); type: functional;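 note: confirmatory high-throughput counterscreen run to flag cytotoxic compounds; mouse MIN-6 beta cells carrying an insulin promoter eGFP reporter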
[4] = Shn3 3'UTR reporter inhibitors, dose response, cell-based, Clone20 osteoblasts, firefly luciferase, cherry-picked (AID 624132); type: functional;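 note: firefly luciferase luminescence from reporter carrying the Shn3 3'UTR in osteoblasts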
INS1 = test: beta cell apoptosis inhibitors, cytokine rescue, dose response, luminescence, retest (AID 449756); type: functional, cell-based; conditions: Rattus norvegicus;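 note: cell death triggered by IL-1 beta plus TNF-alpha plus IFN-gamma mixture; protective hits raise ATP signal compared with cytokine alone wells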
[5] = reduction of Shn3 3'UTR firefly luciferase signal, dose response, Schnurri-3 inhibitor project, cell-based, Clone20 osteoblasts, cherry-pick, set 2 (AID 720490); type: functional;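 note: actives lower the luminescence signal as inhibitors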
[6] = HepG2 cell cytotoxicity, dose response, cytotoxicity control for Shn3 inhibitor project, CellTiter-Glo, cherry-picked (AID 624134); type: functional, cell-based
[7] = insulin promoter down-regulators in MIN6 cells, imaging, high-content screening, mouse beta cells (AID 1628); type: functional
[8] = target: COUP transcription factor 2 (Homo sapiens, UniProt P24468); test: Luminescence-based cell-based high throughput dose response assay to identify inhibitors of COUP-TFII (NR2F2).; type: functional;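 note: HEK293 cells transiently cotransfected with COUP-TFII expression vector and reporter; luciferase reporter luminescence driven by COUP-TFII from the pX2-168 reporter plasmid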
COUP transcription factor 2, sequence (P24468 whole entry): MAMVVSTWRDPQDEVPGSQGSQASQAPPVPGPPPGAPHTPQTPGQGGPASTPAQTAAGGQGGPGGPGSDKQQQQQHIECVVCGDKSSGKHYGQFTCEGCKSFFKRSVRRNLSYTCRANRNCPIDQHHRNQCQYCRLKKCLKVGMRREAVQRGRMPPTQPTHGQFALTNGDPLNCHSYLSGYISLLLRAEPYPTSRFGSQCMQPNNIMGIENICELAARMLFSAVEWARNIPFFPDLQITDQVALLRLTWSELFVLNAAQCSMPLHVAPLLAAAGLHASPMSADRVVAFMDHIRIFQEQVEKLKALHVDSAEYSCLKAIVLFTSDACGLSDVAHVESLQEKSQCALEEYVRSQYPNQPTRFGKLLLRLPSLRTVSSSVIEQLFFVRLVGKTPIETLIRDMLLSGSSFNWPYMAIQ

[9] = target: ATP-dependent molecular chaperone HSP82 (Candida albicans (strain WO-1) (Yeast), UniProt C4YTQ8); test: loss of DOC-induced GRE-beta-galactosidase reporter signal, dose response, Hsp90 inhibitor project, S. cerevisiae, luminescence (AID 2400); type: functional, cell-based;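 note: beta-galactosidase luminescence from glucocorticoid response element reporter as proxy for Hsp90 function; inhibitor potency where signal loss means Hsp90 inhibition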
ATP-dependent molecular chaperone HSP82, sequence (C4YTQ8 whole entry): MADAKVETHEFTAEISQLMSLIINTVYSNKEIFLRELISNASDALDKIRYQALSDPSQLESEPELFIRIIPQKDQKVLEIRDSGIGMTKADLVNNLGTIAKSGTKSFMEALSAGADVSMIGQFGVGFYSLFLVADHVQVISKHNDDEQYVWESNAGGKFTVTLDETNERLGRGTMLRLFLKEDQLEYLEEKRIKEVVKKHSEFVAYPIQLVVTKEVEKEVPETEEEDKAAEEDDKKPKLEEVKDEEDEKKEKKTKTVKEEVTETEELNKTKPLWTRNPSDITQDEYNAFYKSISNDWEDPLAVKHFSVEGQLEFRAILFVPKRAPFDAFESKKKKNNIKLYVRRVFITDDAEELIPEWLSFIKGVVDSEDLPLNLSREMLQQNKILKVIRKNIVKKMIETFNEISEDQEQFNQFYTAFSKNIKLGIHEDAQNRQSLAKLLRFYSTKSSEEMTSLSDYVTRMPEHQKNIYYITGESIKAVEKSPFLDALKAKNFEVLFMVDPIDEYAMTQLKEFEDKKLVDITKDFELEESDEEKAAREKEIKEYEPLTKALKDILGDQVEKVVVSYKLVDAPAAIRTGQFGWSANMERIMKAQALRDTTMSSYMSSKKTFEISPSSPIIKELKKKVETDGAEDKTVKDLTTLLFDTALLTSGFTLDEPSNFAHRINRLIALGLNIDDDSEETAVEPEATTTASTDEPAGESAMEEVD

[10] = NIH-3T3 fibroblast cytotoxicity, dose response, cytotoxicity control, cell-based, fluorescence, Alamar Blue, secondary assay (AID 2327); type: functional;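 note: NIH-3T3 mouse fibroblasts cultured with fluconazole at 8 µg/mL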
[11] = target: T1, Serine/threonine-protein phosphatase (Candida dubliniensis (strain CD36 / CBS 7987 / NCPF 3949 / NRRLY-17841) (Yeast), UniProt B9W6M3); test: Fluorescence Cell-Based Secondary Assay to Identify Inhibitors of Calcineurin. [Related pubchem assays (depositor defined):AID1979, AID2007]; type: functional
T1 sequence (B9W6M3 whole entry): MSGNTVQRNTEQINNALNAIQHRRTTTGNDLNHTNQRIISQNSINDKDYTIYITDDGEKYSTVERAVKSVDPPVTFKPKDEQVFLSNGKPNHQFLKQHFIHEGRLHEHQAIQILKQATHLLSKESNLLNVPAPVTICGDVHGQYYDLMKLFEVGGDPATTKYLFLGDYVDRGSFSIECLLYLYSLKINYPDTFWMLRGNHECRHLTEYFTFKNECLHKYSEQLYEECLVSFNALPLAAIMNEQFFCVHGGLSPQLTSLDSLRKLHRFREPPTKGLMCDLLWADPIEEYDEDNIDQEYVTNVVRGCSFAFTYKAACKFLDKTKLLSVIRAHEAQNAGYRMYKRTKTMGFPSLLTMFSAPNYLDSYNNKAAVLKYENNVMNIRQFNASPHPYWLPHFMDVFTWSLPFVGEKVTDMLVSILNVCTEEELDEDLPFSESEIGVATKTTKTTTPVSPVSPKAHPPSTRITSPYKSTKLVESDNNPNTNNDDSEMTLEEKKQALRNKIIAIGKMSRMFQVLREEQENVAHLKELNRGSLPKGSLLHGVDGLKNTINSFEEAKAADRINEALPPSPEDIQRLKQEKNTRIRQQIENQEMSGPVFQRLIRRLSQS

[12] = C. albicans growth with fluconazole, confirmation, fluorescence, retest (AID 2467); type: functional, cell-based
[13] = target: T1, Serine/threonine-protein phosphatase; test: calcineurin pathway inhibitors in yeast reporter, dose response, S. cerevisiae, CDRE-lacZ, luminescence, secondary (AID 2388); type: functional, cell-based;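 note: yeast reporter cells carrying a calcineurin-responsive lacZ construct stimulated with calcium chloride; luminescent beta-galactosidase reporter signal in whole cells rather than isolated phosphatase activity; potency for inhibition where a drop in reporter signal means calcineurin blockade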

Q: What does the source list for `Cn1nc(CC(=O)Nc2ccc3c(c2)OCCO3)c2ccccc2c1=O`?
A: AC50 [1]: 3.62 µM (active); IC50 (Jurkat): > 80 µM (inactive); IC50 [2]: > 80 µM (inactive); IC50 [3]: 552 nM (active); AC50 [4]: 899 nM (active); AC50 (INS1): 2.77 µM (active); AC50 [5]: 1.36 µM (active); AC50 [6]: 55.8 µM (active); IC50 [7]: 797 nM (active); IC50 [8]: 6.56 µM (active)

Q: Which EC50 [9] does the source give for `COc1ccc(-n2nc(C(=O)NCC(=O)N3CCN(c4ccccc4)CC3)c3ccccc3c2=O)c(OC)c1` here?
A: > 160 µM (inactive)

Q: What about the EC50 [10] of the same molecule?
A: > 160 µM (inactive)

Q: What about the EC50 [11] of the same molecule?
A: > 285 µM (inactive)

Q: What about the EC50 [12] of the same molecule?
A: 819 nM (active)

Q: And the EC50 [13]?
A: > 180 µM (inactive)
